Laboratory results as given in paper PMC8587544, “Identification of Novel Antagonists Targeting Cannabinoid Receptor 2 Using a Multi-Step Virtual Screening Strategy” (Molecules, 2021).

Molecular target: T1, human CB2 receptor (Homo sapiens, UniProt P34972)
Assay: Radioligand binding assays at human CB2 receptor ([3H]-CP55940)
Conditions: [3H]-CP55940 0.8 nM, 90 min, 30 °C, read-out: Binding Affinities pKi (converted)
Procedure: The 15 compounds were purchased from J&K Scientific Ltd. (Shanghai, China). The radioligand binding assays and functional assays to CB2 receptor were performed by Pharmaron (Beijing) upon commission. In the CB2 receptor assays, [^3H]-CP55940 was used as the radioligand; the 15 compounds were tested in radioligand binding assays at human CB2 receptor ([^3H]-CP55940). The competition binding experiments of the test compounds at ten different concentrations and [^3H]-CP55940 (0.8 nM) against CB2 receptor (2 μg/well) were performed for 90 min at 30 °C in 500 μL of assay buffer (25 mM HEPES, 10 mM MgCl2, 1 mM CaCl2, 0.5% BSA, pH 7.4).

T1 sequence (P34972 whole entry): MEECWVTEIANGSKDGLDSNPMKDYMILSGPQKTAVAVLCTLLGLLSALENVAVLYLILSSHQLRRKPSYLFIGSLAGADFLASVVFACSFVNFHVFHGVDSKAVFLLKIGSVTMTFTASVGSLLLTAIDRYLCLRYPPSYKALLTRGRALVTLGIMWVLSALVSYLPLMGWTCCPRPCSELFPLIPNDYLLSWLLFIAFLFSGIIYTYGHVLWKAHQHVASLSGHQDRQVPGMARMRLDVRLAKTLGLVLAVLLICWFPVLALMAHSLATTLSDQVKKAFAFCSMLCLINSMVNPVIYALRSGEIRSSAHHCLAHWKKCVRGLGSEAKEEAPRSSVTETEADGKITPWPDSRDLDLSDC

| Molecule | Ki [µM] |
| --- | --- |
| COc1ccc(-n2c(=O)c3c4c(sc3n(Cc3ccc(F)cc3)c2=O)CN(C(C)=O)CC4)cc1 [Compound 6] | 7.08 |
| COc1cc(C2CC(=O)Nc3c2c(=O)n(C)c(=O)n3C)ccc1OCc1cccc(F)c1 (stereo not shown) [Compound 2] | > 100 |
| COc1ccccc1Nc1sc(C(=O)c2ccccc2)c(N)c1S(=O)(=O)c1ccccc1 [Compound 3] | 4.9 |
| O=C(NC1CCCCCC1)c1cc(-c2cccs2)nn1Cc1ccc(F)cc1 [Compound 15] | 1.74 |
| O=C(Cn1c(=O)n(Cc2ccccc2)c(=O)c2sc3ccccc3c21)NC1CCCCC1 [Compound 4] | > 100 |
| O=c1c2nccnc2nc(SCc2cccc(F)c2)n1Cc1cccs1 [Compound 12] | 3.55 |
| Cc1ccc(C)c(CNC(=O)c2cc(-c3cccs3)nn2Cc2ccc(F)cc2)c1 [Compound 14] | 17.8 |
| NC(=O)c1nc(Nc2ccccc2)sc1NC(=O)C12CC3CC(CC(C3)C1)C2 [Compound 1] | 1.58 |
| CCCCNC(=O)Cn1c(=O)n(-c2cccc(C(F)(F)F)c2)c(=O)c2sccc21 [Compound 10] | 17.8 |
| Cc1cccn2c(=O)c(/C=C3\SC(=S)N(Cc4ccco4)C3=O)c(NCC3CCCO3)nc12 (stereo not shown) [Compound 8] | 0.219 |
| O=C(CSc1nc2nccnc2c(=O)n1Cc1ccc2c(c1)OCO2)Nc1ccc(F)cc1 [Compound 5] | 38 |
| CC(=O)Nc1c2n(c3ccc(F)cc13)CC(C)(C(=O)NC1CCCC1)N(Cc1ccc(F)cc1)C2=O (stereo not shown) [Compound 13] | 33.1 |
| CN(C(=O)c1nn(C)c2c1COc1ccccc1-2)c1cccc(C(F)(F)F)c1 [Compound 11] | 13.8 |
| Cc1cc(S(=O)(=O)c2cc3cc(C(C)(C)C)cc(O)c3oc2=O)ccc1F [Compound 9] | 23.4 |
| CC(=O)N1CCc2c(sc3c2c(=O)n(Cc2ccccc2)c(=O)n3Cc2c(F)cccc2Cl)C1 [Compound 7] | 6.61 |

Molecular target: T1, human CB2 receptor
Assay: cAMP functional assay in Flpin-CHO-CB2 cells (antagonism of CP55940-mediated decrease in cAMP)
Assay type: cell-based
Conditions: not given
Procedure: Compounds 1, 3, 6, 7, 8, 12, and 15 were further evaluated by cAMP functional assays.
The CB2 receptor antagonistic activities of the 7 compounds were evaluated by investigating CB2-mediated cAMP production in Flpin-CHO-K1 cells functional assay. The Flpin-CHO-K1 cells that are engineered to stably express human CB2 receptor (the Flpin-CHO-CB2 cells) were cultured in the growth medium (Ham’s F12K + 10%FBS + 1×Ps + 800 ug/mL HB) at 37 °C and 5% CO2. The cells were then collected by centrifugation and resuspended in Hank’s balanced salt solution (HBSS), 0.1% bovine serum albumin (BSA), 20 mM N-(2-hydroxyethyl)-piperazine-N0-ethanesulfonic acid (HEPES), and 500 μM 3-isobutyl-1-methylxanthine (IBMX). The test compounds were serially diluted in DMSO at 2-fold dilutions of 10 concentrations ranging from 10,000 μM to 20 μM. The antagonistic activities were evaluated by assessing their ability to counteract the agonist (CP55940)-mediated decrease in cAMP accumulation. The accumulation of cAMP was determined by following the manufacturer’s instructions for a Perkin Elmer cAMP kit.

| Molecule | IC50 [µM] |
| --- | --- |
| O=C(NC1CCCCCC1)c1cc(-c2cccs2)nn1Cc1ccc(F)cc1 [Compound 15] | 2.82 |

Same assay, conditions: cAMP functional assays, CB2 over CB1

| Molecule | antagonistic activity towards the CB2 receptor in comparison to the CB1 receptor (selectivity) |
| --- | --- |
| Cc1cccn2c(=O)c(/C=C3\SC(=S)N(Cc4ccco4)C3=O)c(NCC3CCCO3)nc12 (stereo not shown) [Compound 8] | more than 100 times |

Same assay, conditions: human CB2 receptor, Flpin-CHO-CB2 cells, antagonism of CP55940; read-out: cAMP Assay pIC50 (converted)

| Molecule | IC50 [µM] |
| --- | --- |
| COc1ccc(-n2c(=O)c3c4c(sc3n(Cc3ccc(F)cc3)c2=O)CN(C(C)=O)CC4)cc1 [Compound 6] | > 20 |
| COc1ccccc1Nc1sc(C(=O)c2ccccc2)c(N)c1S(=O)(=O)c1ccccc1 [Compound 3] | 0.339 |
| O=c1c2nccnc2nc(SCc2cccc(F)c2)n1Cc1cccs1 [Compound 12] | 5.62 |
| NC(=O)c1nc(Nc2ccccc2)sc1NC(=O)C12CC3CC(CC(C3)C1)C2 [Compound 1] | > 20 |
| Cc1cccn2c(=O)c(/C=C3\SC(=S)N(Cc4ccco4)C3=O)c(NCC3CCCO3)nc12 (stereo not shown) [Compound 8] | 0.117 |
| CC(=O)N1CCc2c(sc3c2c(=O)n(Cc2ccccc2)c(=O)n3Cc2c(F)cccc2Cl)C1 [Compound 7] | 3.47 |

Molecular target: T2, human CB1 receptor (Homo sapiens, UniProt P21554)
T2 sequence (P21554 whole entry): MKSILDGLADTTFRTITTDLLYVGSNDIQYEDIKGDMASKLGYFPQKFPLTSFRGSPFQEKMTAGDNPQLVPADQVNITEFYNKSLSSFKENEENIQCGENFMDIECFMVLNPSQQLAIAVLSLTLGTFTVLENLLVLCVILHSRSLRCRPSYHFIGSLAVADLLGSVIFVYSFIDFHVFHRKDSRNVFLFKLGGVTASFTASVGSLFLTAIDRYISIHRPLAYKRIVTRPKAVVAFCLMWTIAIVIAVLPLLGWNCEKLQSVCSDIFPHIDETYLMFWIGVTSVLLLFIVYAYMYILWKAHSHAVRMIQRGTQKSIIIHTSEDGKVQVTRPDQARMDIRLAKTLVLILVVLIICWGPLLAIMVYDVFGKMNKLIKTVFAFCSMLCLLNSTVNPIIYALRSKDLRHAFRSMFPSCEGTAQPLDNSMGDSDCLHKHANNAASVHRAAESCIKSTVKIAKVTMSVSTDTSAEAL
Assay: Radioligand binding assays at human CB1 receptor
Conditions: read-out: Binding affinities pKi (converted)
Procedure: (§1) The binding and functional selectivity of the five compounds were tested by performing radioligand binding assays and cAMP functional assays against the CB1 receptor.

| Molecule | Ki [µM] |
| --- | --- |
| COc1ccccc1Nc1sc(C(=O)c2ccccc2)c(N)c1S(=O)(=O)c1ccccc1 [Compound 3] | 18.6 |
| O=C(NC1CCCCCC1)c1cc(-c2cccs2)nn1Cc1ccc(F)cc1 [Compound 15] | 25.7 |
| O=c1c2nccnc2nc(SCc2cccc(F)c2)n1Cc1cccs1 [Compound 12] | 38 |
| Cc1cccn2c(=O)c(/C=C3\SC(=S)N(Cc4ccco4)C3=O)c(NCC3CCCO3)nc12 (stereo not shown) [Compound 8] | 3.39 |
| CC(=O)N1CCc2c(sc3c2c(=O)n(Cc2ccccc2)c(=O)n3Cc2c(F)cccc2Cl)C1 [Compound 7] | 16.6 |

Molecular target: T2, human CB1 receptor
Assay: cAMP functional assay against CB1 receptor
Assay type: cell-based
Conditions: CB1 receptor, cAMP functional assay; read-out: antagonistic activities against the CB1 receptor
Procedure: as §1

| Molecule | IC50 [µM] |
| --- | --- |
| COc1ccccc1Nc1sc(C(=O)c2ccccc2)c(N)c1S(=O)(=O)c1ccccc1 [Compound 3] | > 20 |
| O=c1c2nccnc2nc(SCc2cccc(F)c2)n1Cc1cccs1 [Compound 12] | > 20 |
| Cc1cccn2c(=O)c(/C=C3\SC(=S)N(Cc4ccco4)C3=O)c(NCC3CCCO3)nc12 (stereo not shown) [Compound 8] | > 20 |

Same assay, conditions: cAMP assay pIC50, human CB1 receptor

| Molecule | IC50 [µM] |
| --- | --- |
| O=C(NC1CCCCCC1)c1cc(-c2cccs2)nn1Cc1ccc(F)cc1 [Compound 15] | 4.57 |

Same assay, conditions: human CB1 receptor; read-out: cAMP assay pIC50 (converted)

| Molecule | IC50 [µM] |
| --- | --- |
| Cc1cccn2c(=O)c(/C=C3\SC(=S)N(Cc4ccco4)C3=O)c(NCC3CCCO3)nc12 (stereo not shown) [Compound 8] | > 20 |
| CC(=O)N1CCc2c(sc3c2c(=O)n(Cc2ccccc2)c(=O)n3Cc2c(F)cccc2Cl)C1 [Compound 7] | 7.08 |

Molecular target: CB2 receptor
Assay: not given
Conditions: CB2 receptor; cited from earlier work

| Molecule | pKi |
| --- | --- |
| COc1ccc(C(=O)c2c(C)n(CCN3CCOCC3)c3cc(I)ccc23)cc1 [AM630] | 7.5 |
| SR144528 | 8.3–9.2 |

Same assay, conditions: pharmacophore training set, ChEMBL27 database; cited from earlier work

| Molecule | Ki [nM] |
| --- | --- |
| C[C@@H](NS(=O)(=O)C(F)(F)F)c1ccc(S(=O)(=O)c2ccoc2S(=O)(=O)c2ccccc2F)cc1 [CHEMBL1270480] | 4.4 |
| CCOC(=O)c1c(NC(=O)C23CC4CC(CC(C4)C2)C3)sc2c1CCCC2 [CHEMBL3909238] | 2.15 |
| CSC(=S)N1CC2(CCCCC2)CS/C1=N\c1cccc(C(C)C)c1 [CHEMBL231719] | 2.5 |
| CCCCCn1cc(C(=O)NC23CC4CC(CC(C4)C2)C3)c(=O)c2cc(-c3ccc(O)cc3)ccc21 [CHEMBL1215918] | 4.2 |
| COCCn1c(C)c(C)sc1=NC(=O)C1C(C)(C)C1(C)C [CHEMBL1668519] | 0.64 |
| CCCCCCC1(c2cc(O)c3c(c2)OC(C)(C)[C@@H]2CC=C(C)C[C@@H]32)CCCC1 [CHEMBL108868] | 1.91 |
| COc1cc(C(O)c2cccs2)cc(OC)c1-c1cc(Cl)cc(Cl)c1 (stereo not shown) [CHEMBL1076685] | 0.2 |
